Values of other authors, collected in patent US20080153927A1, “ALPHA-2B RECEPTOR AGONIST AND RELAXANT COMPOSITIONS FOR TREATING GASTROINTESTINAL MOTILITY DISORDERS” (Allergan, Inc., priority 2006, published 2008).

initial half-life (in vivo): 1.2 h
time to maximum serum concentration (serum): about 1 hour
SMILES: CN(C)[C@@H](CCOc1cccc2ccccc12)c1ccccc1 [Dapoxetine]
